How the values were obtained:
Assay type in all cases: in vivo
[1] = system: AVEFA (Avena fatua); experiment: PE action at different soil pH values, test method 10; details: PE application, g of AS/ha: (A) 90, (B) 1200, (C) 140, (A)+(B)+(C) 90 + 1200 + 140
Experimental: (§1) In the standard design of the test, seeds of various broad-leaved weed and weed grass biotypes (origins) were sown in a 8-13 cm diameter pot filled with natural soil of a standard field soil (loamy silt; non-sterile) and covered with a covering soil layer of about 1 cm. The pots were then cultivated in a greenhouse (12-16 h of light, temperature day 20-22° C., night 15-18° C.) until the time of application. The pots were treated on a laboratory track sprayer with spray liquors comprising the compositions according to the invention, mixtures of the prior art or components used individually. Application of the active compounds or active compound combinations formulated as WG, WP, EC or otherwise was carried out at the appropriate growth stages of the plants. The application rate for the spray application was 100-600 l of water/ha. After the treatment, the plants were returned to the greenhouses.
(§2) About 3 weeks after the application, the soil action or/and foliar action was assessed visually according to a scale of 0-100% in comparison to an untreated comparative group: 0%=no noticeable effect compared to the untreated comparative group; 100%=full effect compared to the untreated comparative group.

[2] = system: LOLPE (Lolium perenne); experiment: Pre-sowing application action against weeds (7 days prior to sowing), test method 5; details: application 7 days prior to sowing; g of AS/ha: (A) 90, (B) 1200, (C) 140, (A)+(B)+(C) 90 + 1200 + 140
Experimental: as §1, §2
(notes: the term “seeds” also includes vegetative propagation forms such as, for example, rhizome pieces; abbreviations used: h light=hours of illumination, g of AS/ha=gram of active substance per hectare, l/ha=liter per hectare, S=sensitive, R=resistant) • 1. Pre-emergence action against weeds: seeds of various broad-leaved weed and weed grass biotypes (origins) were sown in a 8-13 cm diameter pot filled with natural soil of a standard field soil (loamy silt; non-sterile) and covered with a covering soil layer of about 1 cm. The pots were then cultivated in a greenhouse (12-16 h of light, temperature day 20-22° C., night 15-18° C.) until the time of application. The pots were treated at the BBCH stage 00-10 of the seeds/plants on a laboratory track sprayer with spray liquors comprising the compositions according to the invention, mixtures or components used individually, as WG, WP, EC or other formulations. The application rate for the spray application was 100-600 l of water/ha. After the treatment, the plants were returned to the greenhouses and, when required, treated with fertilizer and watered. • 2. Post-emergence action against weeds: seeds of various broad-leaved weed and weed grass biotypes (origins) were sown in a 8-13 cm diameter pot filled with natural soil of a standard field soil (loamy silt; non-sterile) and covered with a covering soil layer of about 1 cm. The pots were then cultivated in a greenhouse (12-16 h of light, temperature day 20-22° C., night 15-18° C.) until the time of application. […]

[3] = system: VIOAR (Viola arvensis); experiment: Post-emergence (PO) action against weeds, greenhouse trial, test method 2; details: PO application; g of AS/ha: (A) 240, (B) 1200, (C) 140, (A)+(B)+(C) 240 + 1200 + 140
Experimental: as §1, §2
(§3) (notes: the term “seeds” also includes vegetative propagation forms such as, for example, rhizome pieces; abbreviations used: h light=hours of illumination, g of AS/ha=gram of active substance per hectare, l/ha=liter per hectare, S=sensitive, R=resistant) • 1. Pre-emergence action against weeds: seeds of various broad-leaved weed and weed grass biotypes (origins) were sown in a 8-13 cm diameter pot filled with natural soil of a standard field soil (loamy silt; non-sterile) and covered with a covering soil layer of about 1 cm. The pots were then cultivated in a greenhouse (12-16 h of light, temperature day 20-22° C., night 15-18° C.) until the time of application. The pots were treated at the BBCH stage 00-10 of the seeds/plants on a laboratory track sprayer with spray liquors comprising the compositions according to the invention, mixtures or components used individually, as WG, WP, EC or other formulations. The application rate for the spray application was 100-600 l of water/ha. After the treatment, the plants were returned to the greenhouses and, when required, treated with fertilizer and watered. • 2. Post-emergence action against weeds: seeds of various broad-leaved weed and weed grass biotypes (origins) were sown in a 8-13 cm diameter pot filled with natural soil of a standard field soil (loamy silt; non-sterile) and covered with a covering soil layer of about 1 cm. The pots were then cultivated in a greenhouse (12-16 h of light, temperature day 20-22° C., night 15-18° C.) until the time of application. The pots were treated at various BBCH stages between 11-25 of the seeds/plants, i.e. generally between two to three weeks after the start of the cultivation, on a laboratory track sprayer with spray liquors comprising the compositions according to the invention, mixtures or components used individually, as WG, WP, EC or other formulations. The application rate for the spray application was 100-600 l of water/ha. After the treatment, the plants were returned to the greenhouses and, when required, treated with fertilizer and watered. • 3. […]

[4] = system: ALOMY sensitive (Alopecurus myosuroides); experiment: PE action on resistant weed biotypes, test method 8; details: PE application; g of AS/ha: (A) 90, (B) 1200, (C) 140, (A)+(B)+(C) 90 + 1200 + 140, iodosulfuron 10
Experimental: as §1, §2
(§4) (notes: the term “seeds” also includes vegetative propagation forms such as, for example, rhizome pieces; abbreviations used: h light=hours of illumination, g of AS/ha=gram of active substance per hectare, l/ha=liter per hectare, S=sensitive, R=resistant) • 1. Pre-emergence action against weeds: seeds of various broad-leaved weed and weed grass biotypes (origins) were sown in a 8-13 cm diameter pot filled with natural soil of a standard field soil (loamy silt; non-sterile) and covered with a covering soil layer of about 1 cm. The pots were then cultivated in a greenhouse (12-16 h of light, temperature day 20-22° C., night 15-18° C.) until the time of application. The pots were treated at the BBCH stage 00-10 of the seeds/plants on a laboratory track sprayer with spray liquors comprising the compositions according to the invention, mixtures or components used individually, as WG, WP, EC or other formulations. The application rate for the spray application was 100-600 l of water/ha. After the treatment, the plants were returned to the greenhouses and, when required, treated with fertilizer and watered. • 2. Post-emergence action against weeds: seeds of various broad-leaved weed and weed grass biotypes (origins) were sown in a 8-13 cm diameter pot filled with natural soil of a standard field soil (loamy silt; non-sterile) and covered with a covering soil layer of about 1 cm. The pots were then cultivated in a greenhouse (12-16 h of light, temperature day 20-22° C., night 15-18° C.) until the time of application. The pots were treated at various BBCH stages between 11-25 of the seeds/plants, i.e. generally between two to three weeks after the start of the cultivation, on a laboratory track sprayer with spray liquors comprising the compositions according to the invention, mixtures or components used individually, as WG, WP, EC or other formulations. The application rate for the spray application was 100-600 l of water/ha. After the treatment, the plants were returned to the greenhouses and, when required, treated with fertilizer and watered. • 3. Selective pre-emergence action: seeds of various crop species (origins) were sown in a 8-13 cm diameter pot filled with natural soil of a standard field soil (loamy silt; non-sterile) and covered with a covering soil layer of about 1 cm. The pots were then cultivated in a greenhouse (12-16 h of light, temperature day 20-22° C., night 15-18° C.) until the time of application. The pots were treated at the BBCH stage 00-10 of the seeds/plants on a laboratory track sprayer with spray liquors comprising the compositions according to the invention, mixtures or components used individually, as WG, WP, EC or other formulations. The application rate for the spray application was 100-600 l of water/ha. […]

[5] = system: ALOMY resistant (Alopecurus myosuroides); experiment: as above; details: PE application; g of AS/ha: (A) 90, (B) 1200, (C) 140, (A)+(B)+(C) 90 + 1200 + 140, iodosulfuron 10
Experimental: as §1, §2, §4

[6] = system: LOLSS sensitive (Lolium species); experiment: as above; details: PE application; g of AS/ha: (A) 90, (B) 1200, (C) 140, (A)+(B)+(C) 90 + 1200 + 140, iodosulfuron 10
Experimental: as §1, §2, §4

[7] = system: HORVS (Hordeum vulgare, summer barley); experiment: Selective post-emergence action (crop compatibility), greenhouse trial, test method 4; details: PO application; g of AS/ha: (A) 240, (B) 1200, (C) 140, (A)+(B)+(C) 240 + 1200 + 140
Experimental: as §1, §2
(notes: the term “seeds” also includes vegetative propagation forms such as, for example, rhizome pieces; abbreviations used: h light=hours of illumination, g of AS/ha=gram of active substance per hectare, l/ha=liter per hectare, S=sensitive, R=resistant) • 1. Pre-emergence action against weeds: seeds of various broad-leaved weed and weed grass biotypes (origins) were sown in a 8-13 cm diameter pot filled with natural soil of a standard field soil (loamy silt; non-sterile) and covered with a covering soil layer of about 1 cm. The pots were then cultivated in a greenhouse (12-16 h of light, temperature day 20-22° C., night 15-18° C.) until the time of application. […]

[8] = system: HORVS (Hordeum vulgare, summer barley); experiment: Action under various soil conditions (soil types), test method 7, crop compatibility; details: IU/EC73 soil versus IU soil; g of AS/ha: (A) 90, (B) 1200, (C) 140, (A)+(B)+(C) 90 + 1200 + 140
Experimental: as §1, §2, §3

[9] = system: MATCH (Matricaria chamomilla); experiment: PE action under various irrigation conditions, test method 6; details: PE application; irrigation from below; g of AS/ha: (A) 90, (B) 1200, (C) 140, (A)+(B)+(C) 90 + 1200 + 140
Experimental: as §1, §2, §4

[10] = system: LOLPE (Lolium perenne); experiment: as above; details: PE application, g of AS/ha: (A) 90, (B) 1200, (C) 140, (A)+(B)+(C) 90 + 1200 + 140
Experimental: as §1, §2, §4

[11] = system: MATCH (Matricaria chamomilla); experiment: Action under various soil conditions (soil types), test method 7; details: g of AS/ha: (A) 90, (B) 1200, (C) 140, (A)+(B)+(C) 90 + 1200 + 140
Experimental: as §1, §2, §4

## CC(C)N(C(=O)COc1nnc(C(F)(F)F)s1)c1ccc(F)cc1 [(A) flufenacet, N-(4-fluorophenyl)-N-(1-methylethyl)-2-[[5-(trifluoromethyl)-1,3,4-thiadiazol-2-yl]oxy]acetamide]
[1]; soil pH 7.4
  activity AVEFA pH 7.4: 80%
[1]; soil pH 8.4
  activity AVEFA pH 8.4: 55%
[2]
  activity LOLPE: 93%
[3]
  activity VIOAR (visual, scale 0-100%): 50%
[4]
  activity ALOMY sensitive: 80%
[5]
  activity ALOMY resistant: 68%
[6]
  activity LOLSS sensitive: 5%
[7]
  activity HORVS (crop plant; visual, scale 0-100%): 60%
[8]
  Difference of the soil types, HORVS: −10%
[9]
  activity MATCH: 15%
[10]; irrigation from above
  activity LOLPE: 82%
[10]; irrigation from below
  activity LOLPE: 75%
[11]; IU soil
  activity MATCH IU soil: 28%
[11]; IU/EC73 soil versus IU soil
  Difference of the soil types, MATCH: −23%
[11]; IU/EC73 soil
  activity MATCH IU/EC73 soil: 5%
